Data on five compounds can be found in ChEMBL document CHEMBL1649265, “Antimicrobial susceptibilities of Mycoplasma genitalium strains examined by broth dilution and quantitative PCR” (2009).

Assay type in all cases: functional
What all share (settings): Mycoplasmoides genitalium

The test system of assay [1] is Mycoplasma genitalium. Nature of the assay: Antibacterial activity against Mycoplasma genitalium by broth dilution method. Background: In broth dilution the organism is exposed to a series of concentrations in liquid medium.
In assay [2] the test system is Mycoplasma genitalium. Put plainly: Antibacterial activity against Mycoplasma genitalium by quantitative TaqMan PCR method.
The subject of assay [3] is Mycoplasma genitalium. Put plainly: Antibacterial activity against Mycoplasma genitalium G37 by broth dilution method.
Assay [4] concerns Mycoplasma genitalium. Nature of the assay: Antibacterial activity against Mycoplasma genitalium M30 by broth dilution method.
The subject of assay [5] is Mycoplasma genitalium. Nature of the assay: Antibacterial activity against Mycoplasma genitalium R32 by broth dilution method.
For assay [6], the system named is Mycoplasma genitalium. Put plainly: Antibacterial activity against Mycoplasma genitalium TW10-5G by broth dilution method.
The subject of assay [7] is Mycoplasma genitalium. Nature of the assay: Antibacterial activity against Mycoplasma genitalium TW10-6G by broth dilution method.
The test system of assay [8] is Mycoplasma genitalium. Nature of the assay: Antibacterial activity against Mycoplasma genitalium TW48-5G by broth dilution method.
Assay [9] concerns Mycoplasma genitalium. Nature of the assay: Antibacterial activity against Mycoplasma genitalium UTMB-10G by broth dilution method.
Assay [10] relates to Mycoplasma genitalium. Put plainly: Antibacterial activity against Mycoplasma genitalium M2282 by broth dilution method.
For assay [11], the system named is Mycoplasma genitalium. Nature of the assay: Antibacterial activity against Mycoplasma genitalium M2300 by broth dilution method.
Assay [12] deals with Mycoplasma genitalium. Nature of the assay: Antibacterial activity against Mycoplasma genitalium M2321 by broth dilution method.
Assay [13] relates to Mycoplasma genitalium. Nature of the assay: Antibacterial activity against Mycoplasma genitalium M2341 by broth dilution method.
Assay [14] has as its system Mycoplasma genitalium. Nature of the assay: Antibacterial activity against Mycoplasma genitalium M6257 by broth dilution method.
Assay [15] concerns Mycoplasma genitalium. Nature of the assay: Antibacterial activity against Mycoplasma genitalium M6280 by broth dilution method.
Assay [16] has as its system Mycoplasma genitalium. Put plainly: Antibacterial activity against Mycoplasma genitalium M6285 by broth dilution method.
In assay [17] the test system is Mycoplasma genitalium. Nature of the assay: Antibacterial activity against Mycoplasma genitalium M6286 by broth dilution method.
The subject of assay [18] is Mycoplasma genitalium. Nature of the assay: Antibacterial activity against Mycoplasma genitalium M6328 by broth dilution method.
Assay [19] has as its system Mycoplasma genitalium. Nature of the assay: Antibacterial activity against Mycoplasma genitalium M6090 by broth dilution method.
Assay [20] concerns Mycoplasma genitalium. Put plainly: Antibacterial activity against Mycoplasma genitalium M6151 by broth dilution method.
For assay [21], the system named is Mycoplasma genitalium. Nature of the assay: Antibacterial activity against Mycoplasma genitalium M6282 by broth dilution method.
Assay [22] has as its system Mycoplasma genitalium. Nature of the assay: Antibacterial activity against Mycoplasma genitalium M6283 by broth dilution method.
The test system of assay [23] is Mycoplasma genitalium. Put plainly: Antibacterial activity against Mycoplasma genitalium M6284 by broth dilution method.
Assay [24] has as its system Mycoplasma genitalium. Nature of the assay: Antibacterial activity against Mycoplasma genitalium M6287 by broth dilution method.

Values after ≈ are worked out from the molar mass of the structure shown.

As a reminder, the MIC50 is an inhibitory concentration at the 50% level, which refers to growth in some studies and to a panel of isolates in others. Usually MIC90 stands for an inhibitory concentration at the 90% level, which refers to growth in some studies and to a panel of isolates in others. As a reminder, the MIC is the least concentration at which growth counts as inhibited. Take `C[C@H]1c2cccc(O)c2C(=O)C2=C(O)[C@]3(O)C(=O)C(C(N)=O)=C(O)[C@@H](N(C)C)[C@@H]3[C@@H](O)[C@@H]21.O` [DOXYCYCLINE]: the values for the MIC50 with Mycoplasma genitalium [1] (read-out: MIC50) and against Mycoplasma genitalium [2] were 0.125 µg/mL and 0.25 µg/mL, respectively. For the same compound, the MIC90 was found to be 0.25 µg/mL in the assay with Mycoplasma genitalium [1] (read-out: MIC90) and 0.5 µg/mL with Mycoplasma genitalium [2]. Further, the MIC in the assay on Mycoplasma genitalium [3] (read-out: MIC), in the assay with Mycoplasma genitalium [4] (read-out: MIC), in the assay on Mycoplasma genitalium [5] (read-out: MIC), in the assay on Mycoplasma genitalium [6] (read-out: MIC), in the assay with Mycoplasma genitalium [7] (read-out: MIC) and in the assay with Mycoplasma genitalium [8] (read-out: MIC) was 0.063 µg/mL in each case. Moreover, the MIC in the assay with Mycoplasma genitalium [9] (read-out: MIC), with Mycoplasma genitalium [10], against Mycoplasma genitalium [11], with Mycoplasma genitalium [12], against Mycoplasma genitalium [13] and against Mycoplasma genitalium [14] was 0.063 µg/mL throughout. For the same compound, the MIC against Mycoplasma genitalium [15], against Mycoplasma genitalium [16], against Mycoplasma genitalium [17], against Mycoplasma genitalium [18], against Mycoplasma genitalium [19] and against Mycoplasma genitalium [20] was 0.063 µg/mL each time. The MIC with Mycoplasma genitalium [21], against Mycoplasma genitalium [22], against Mycoplasma genitalium [23] and against Mycoplasma genitalium [24] was 0.063 µg/mL each time.

In the case of `COc1c(N2C[C@@H]3CCCN[C@@H]3C2)c(F)cc2c(=O)c(C(=O)O)cn(C3CC3)c12` [MOXIFLOXACIN], the MIC50 in the assay on Mycoplasma genitalium [1] (read-out: MIC50) and in the assay on Mycoplasma genitalium [2] was 0.063 µg/mL (≈ 0.157 µM) throughout. Further, the MIC90 with Mycoplasma genitalium [1] (read-out: MIC90) and in the assay with Mycoplasma genitalium [2] was 0.125 µg/mL (≈ 0.311 µM) each time. The MIC in the assay with Mycoplasma genitalium [3] (read-out: MIC), in the assay with Mycoplasma genitalium [4] (read-out: MIC), in the assay with Mycoplasma genitalium [5] (read-out: MIC), in the assay on Mycoplasma genitalium [6] (read-out: MIC), in the assay on Mycoplasma genitalium [7] (read-out: MIC) and in the assay on Mycoplasma genitalium [8] (read-out: MIC) was 0.063 µg/mL (≈ 0.157 µM) throughout. The MIC was found to be 0.063 µg/mL (≈ 0.157 µM) in the assay with Mycoplasma genitalium [9] (read-out: MIC); 0.016 µg/mL (≈ 0.0399 µM) in the assay on Mycoplasma genitalium [10]; 0.016 µg/mL (≈ 0.0399 µM) in the assay on Mycoplasma genitalium [11]; 0.016 µg/mL (≈ 0.0399 µM) with Mycoplasma genitalium [12]; 0.016 µg/mL (≈ 0.0399 µM) against Mycoplasma genitalium [13]; 0.016 µg/mL (≈ 0.0399 µM) against Mycoplasma genitalium [14]. Also, the MIC with Mycoplasma genitalium [15], with Mycoplasma genitalium [16], against Mycoplasma genitalium [17], against Mycoplasma genitalium [18], in the assay with Mycoplasma genitalium [19] and against Mycoplasma genitalium [20] was 0.016 µg/mL (≈ 0.0399 µM) throughout. Further, the MIC with Mycoplasma genitalium [21], against Mycoplasma genitalium [22], in the assay on Mycoplasma genitalium [23] and against Mycoplasma genitalium [24] was 0.016 µg/mL (≈ 0.0399 µM) in each case.

On to `CN(C)c1ccc(O)c2c1C[C@H]1C[C@H]3[C@H](N(C)C)C(O)=C(C(N)=O)C(=O)[C@@]3(O)C(O)=C1C2=O` [MINOCYCLINE], for which the MIC50 in the assay with Mycoplasma genitalium [1] (read-out: MIC50) was 0.125 µg/mL (≈ 0.273 µM). In the assay on Mycoplasma genitalium [1] (read-out: MIC90), the MIC90 stood at 0.25 µg/mL (≈ 0.546 µM). For the same compound, the MIC in the assay on Mycoplasma genitalium [3] (read-out: MIC), with Mycoplasma genitalium [4] (read-out: MIC), with Mycoplasma genitalium [5] (read-out: MIC), in the assay with Mycoplasma genitalium [6] (read-out: MIC), in the assay with Mycoplasma genitalium [7] (read-out: MIC) and in the assay with Mycoplasma genitalium [8] (read-out: MIC) was 0.031 µg/mL (≈ 0.0678 µM) in each case. In addition, the MIC in the assay on Mycoplasma genitalium [9] (read-out: MIC) was 0.031 µg/mL (≈ 0.0678 µM); in the assay on Mycoplasma genitalium [10] it was 0.063 µg/mL (≈ 0.138 µM); against Mycoplasma genitalium [11], 0.063 µg/mL (≈ 0.138 µM); in the assay with Mycoplasma genitalium [12], 0.063 µg/mL (≈ 0.138 µM); in the assay on Mycoplasma genitalium [13], 0.063 µg/mL (≈ 0.138 µM); in the assay on Mycoplasma genitalium [14] it was 0.063 µg/mL (≈ 0.138 µM). For the same compound, the MIC in the assay with Mycoplasma genitalium [15], with Mycoplasma genitalium [16], in the assay on Mycoplasma genitalium [17], in the assay on Mycoplasma genitalium [18], against Mycoplasma genitalium [19] and in the assay with Mycoplasma genitalium [20] was 0.063 µg/mL (≈ 0.138 µM) throughout. Also, the MIC with Mycoplasma genitalium [21], in the assay with Mycoplasma genitalium [22], against Mycoplasma genitalium [23] and in the assay on Mycoplasma genitalium [24] was 0.063 µg/mL (≈ 0.138 µM) each time.

For the compound `O=C(O)c1cn(C2CC2)c2cc(N3CCNCC3)c(F)cc2c1=O` [CIPROFLOXACIN], in the assay with Mycoplasma genitalium [2], the MIC50 came to 2 µg/mL (≈ 6.04 µM). This compound also displayed an MIC90 against Mycoplasma genitalium [2] of 8 µg/mL (≈ 24.1 µM). For the same compound, the minimal inhibitory concentration (MIC) in the assay with Mycoplasma genitalium [3] (read-out: MIC), in the assay on Mycoplasma genitalium [4] (read-out: MIC), in the assay with Mycoplasma genitalium [5] (read-out: MIC), in the assay on Mycoplasma genitalium [6] (read-out: MIC), in the assay on Mycoplasma genitalium [7] (read-out: MIC) and with Mycoplasma genitalium [8] (read-out: MIC) was 0.004 µg/mL (≈ 0.0121 µM) each time. Also, the MIC in the assay with Mycoplasma genitalium [9] (read-out: MIC) is 0.004 µg/mL (≈ 0.0121 µM); with Mycoplasma genitalium [10] it was 0.063 µg/mL (≈ 0.19 µM); against Mycoplasma genitalium [11] it was 0.063 µg/mL (≈ 0.19 µM); against Mycoplasma genitalium [12] it was 0.063 µg/mL (≈ 0.19 µM); with Mycoplasma genitalium [13] it was 0.063 µg/mL (≈ 0.19 µM); with Mycoplasma genitalium [14] it was 0.063 µg/mL (≈ 0.19 µM). Further, the minimal inhibitory concentration (MIC) against Mycoplasma genitalium [15], in the assay on Mycoplasma genitalium [16], in the assay on Mycoplasma genitalium [17], in the assay on Mycoplasma genitalium [18], in the assay with Mycoplasma genitalium [19] and with Mycoplasma genitalium [20] was 0.063 µg/mL (≈ 0.19 µM) throughout. The MIC in the assay with Mycoplasma genitalium [21], against Mycoplasma genitalium [22], in the assay on Mycoplasma genitalium [23] and against Mycoplasma genitalium [24] was 0.063 µg/mL (≈ 0.19 µM) each time.

`CC[C@H]1OC(=O)[C@H](C)[C@@H](O[C@H]2C[C@@](C)(OC)[C@@H](O)[C@H](C)O2)[C@H](C)[C@@H](O[C@@H]2O[C@H](C)C[C@H](N(C)C)[C@H]2O)[C@](C)(O)C[C@@H](C)CN(C)[C@H](C)[C@@H](O)[C@]1(C)O` [AZITHROMYCIN]: the MIC50 came to 0.001 µg/mL (≈ 0.00134 µM) with Mycoplasma genitalium [1] and 0.004 µg/mL (≈ 0.00534 µM) in the assay with Mycoplasma genitalium [2]. For the same compound, the results for the MIC90 against Mycoplasma genitalium [1] and against Mycoplasma genitalium [2] were 0.002 µg/mL (≈ 0.00267 µM) and 0.008 µg/mL (≈ 0.0107 µM), respectively. Further, the MIC against Mycoplasma genitalium [3], against Mycoplasma genitalium [4], in the assay on Mycoplasma genitalium [5], in the assay on Mycoplasma genitalium [6], against Mycoplasma genitalium [7] and with Mycoplasma genitalium [8] was 0.001 µg/mL (≈ 0.00134 µM) throughout. The compound also had an MIC against Mycoplasma genitalium [9] of 0.001 µg/mL (≈ 0.00134 µM).
